{"source": "patent US20240226292A1", "about": "“METHODS AND COMPOSITIONS FOR TARGETING OF ANTIGENS AND OTHER POLYPEPTIDES TO FIRST RESPONDER DENDRITIC CELLS” (THE UNIVERSITY OF CHICAGO, priority 2021, published 2024)", "key": {"[1]": {"experiment": "Liposomes loaded with cell cycle blocking agents and FLA before OVA/CpG vaccination", "format": "in vivo, mice", "settings": "liposomes i.p. day 1, 100 ug OVA/10 ug CpG day 2", "protocol": "FIGS. 42A-42D. […] Liposomes were loaded with two agents to block cell cycle (Cytoclastin D, CytoD, which blocks cells in G1 phase and Nocodozole, Noco, which blocks cells in G2 phase) as well as flagellin(FLA) as an TLR agonist. Mice were injected with 200 uL of 10 mM total lipid liposomes containing either (1) PBS only, Blank (2) FLA, 1 ug total per injection (3) FLA and 100 ug CytoD or (4) FLA+20 ug Noco. Mice were injected i.p with liposomes on day 1, then injected with 100 ug OVA/10 ug CpG (free formulation) on day 2 also i.p. Sera was collected via cheek bleed 1 hr after OVA/CpG injection. Mice were then sac'd on day 10 to observe anti-OVA Ig. Serum levels 1 h after injection for (FIG. 42A) IL-4, (FIG. 42B) MCP-1 and (FIG. 42C) TNF-a. (FIG. 42D) Total anti-OVA Ig on […]. N=5 mice per group.\n(§1) Additional characterization and targeting of first responder dendritic cells (FRs) was performed."}, "BMDCs": {"system": "BMDCs", "experiment": "Nocodazole treated BMDCs, MP uptake and % FRs by imagestream", "format": "cell-based, mouse", "settings": "10 nM Nocodazole for 20 hrs prior to MP treatment, versus NT", "protocol": "FIGS. 39A-39E. FRs are more likely actively dividing. (FIG. 39A) 1 million BMDCs were incubated with 1 million MP-TLR4 for 15 mins, washed and stain with Hoest for nuclear stain (0.1 ug/mL) and anti-CD11c antibody. […] (FIG. 39B) Graph of imagestream data from FIG. 39A from an N=3 showing that most BMDC FRs are in G2 phase. (FIG. 39C) 1 million BMDCs were similarly treated as in FIG. 39A, except some samples were treated with 10 nM Nocodazole for 20 hrs prior to MP-TLR4 treatment. NT=non-treated, Noco=Nocodazole treated. (FIG. 39D) Similar to FIG. 39C, BMDCs were treated with MP-TLR7 or Blank MPs (1:1 particles/cells) for 15 mins, then tested via imagestream. Total MP uptake per 100 k BMDCs were calculated for either NT or Noco treated samples. […] N=3, Error bars indicate +/−SD."}, "DAP12": {"biological_target": "DAP12 (Homo sapiens, UniProt O43914)", "sequence (O43914 22-113, species assumed)": "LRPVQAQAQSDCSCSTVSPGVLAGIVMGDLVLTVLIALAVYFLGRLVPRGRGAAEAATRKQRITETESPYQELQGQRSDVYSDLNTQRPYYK", "settings": "cited from earlier work"}, "FRs": {"system": "FRs", "experiment": "CD206 targeting peptide liposomes, FR targeting in BMDCs and splenocytes", "format": "cell-based, mouse", "settings": "lipid-peptide in 200 nm liposomes at 1% total lipid, in combination with heparin or GFLSKSLVF", "protocol": "FIGS. 48A-48B. FR targeting peptides. A peptide targeting CD206 as described in a study by Ghebremedhin et al (Ghebremedhin A, Salam AB, Adu-Addai B, et al. Preprint. bioRxiv. 2020;2020.07.27.218115; incorporated herein by reference), having sequence RWKFGGFKWR (SEQ ID NO:2), was synthesized using the same lipid-peptide display technique as shown previously and incorporated into 200 nm liposomes at 1% total lipid. (FIG. 48A) 200K BMDCs were incubated with liposomes at either 1 or 10 uM total lipid concentration for 15 mins, then incubated with MP-TLR4 (200K) for 15 mins, washed and stained. The liposomal RFU is plotted for various formulations. MMR=CD206 targeting lipid at 1% total lipid, DAP12=DAP12 targeting lipid at 1% total lipid, Hep=heparin-lipid conjugate at 10% total lipid. (FIG. 48B) similar to part A, but using 2 million splenocytes and gating on all CD11c+ cells.\nas §1"}, "PRG2": {"biological_target": "T1, PRG2 (Homo sapiens, UniProt P13727)", "T1 sequence (P13727 106-222)": "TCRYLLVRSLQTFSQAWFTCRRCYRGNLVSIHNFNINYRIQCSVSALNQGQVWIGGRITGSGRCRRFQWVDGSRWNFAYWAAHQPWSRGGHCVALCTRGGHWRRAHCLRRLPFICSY", "settings": "cited from earlier work"}}, "data": [{"compound": "C=C1[C@@H](C)[C@H]2[C@H](Cc3ccccc3)NC(=O)[C@]23[C@H](OC(C)=O)/C=C/[C@@](C)(O)C(=O)[C@@H](C)C/C=C/[C@H]3[C@@H]1O", "note": "[Cytoclastin D]", "values": [{"measurement": "vaccine response", "setting": "[1]", "result": "increases vaccine response"}]}, {"compound": "COC(=O)Nc1nc2cc(C(=O)c3cccs3)ccc2[nH]1", "note": "[Noco, Nocodazole]", "values": [{"measurement": "total % of FRs", "setting": "BMDCs", "result": "increases in FR population"}]}, {"compound": "GFLSKSLVF", "values": [{"measurement": "binding to DAP12", "setting": "DAP12", "result": "selectively binding"}]}, {"compound": "RWKFGGFKWR [peptide targeting CD206 as described by Ghebremedhin et al]", "values": [{"measurement": "identification and targeting of FRs", "setting": "FRs", "result": "can identify and target FRs"}]}, {"compound": "heparin", "values": [{"measurement": "affinity to PRG2", "setting": "PRG2", "result": "moderate affinity"}]}]}
